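Cultured in 96-well plates, cells were exposed to test compound for 48 hours across five concentrations. GI50 marks 50% less growth.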 Calls of active or inactive are those of the source. No stated cut-off is given here; in the data, active = GI50 up to about 1.1 µM and inactive = higher.
Key:
Test in all cases: inhibition of tumour cell growth, NCI panel, 48 h
HT-29 = tested on: HT-29
HCT-15 = tested on: HCT-15
LOX IMVI = tested on: LOX IMVI
SK-MEL-28 = tested on: SK-MEL-28
UACC-62 = tested on: UACC-62
A498 = tested on: A498
MOLT-4 = tested on: MOLT-4
CAKI-1 = tested on: CAKI-1
NCI-H226 = tested on: NCI-H226
OVCAR-3 = tested on: OVCAR-3
HCC 2998 = tested on: HCC 2998
ACHN = tested on: ACHN
SF-268 = tested on: SF-268
786-0 = tested on: 786-0
NCI-H522 = tested on: NCI-H522
UO-31 = tested on: UO-31
HCT-116 = tested on: HCT-116
UACC-257 = tested on: UACC-257
SN12C = tested on: SN12C
A549 = tested on: A549

COc1ccc(OC)c2c1ccc1c(C)c3ccccc3c(C)c12
GI50 (HT-29): 95.1 µM (inactive)
GI50 (HCT-15): 18 µM
GI50 (LOX IMVI): 60.1 µM (inactive)
GI50 (SK-MEL-28): > 100 µM (inactive)
GI50 (UACC-62): > 100 µM (inactive)
GI50 (A498): 61 µM (inactive)
GI50 (MOLT-4): 88.9 µM (inactive)
GI50 (CAKI-1): > 100 µM (inactive)
GI50 (NCI-H226): > 100 µM (inactive)
GI50 (OVCAR-3): 95.3 µM (inactive)
GI50 (HCC 2998): 15.8 µM (inactive)
GI50 (ACHN): > 100 µM (inactive)
GI50 (SF-268): > 100 µM (inactive)
GI50 (786-0): > 100 µM (inactive)
GI50 (NCI-H522): 75.9 µM (inactive)
GI50 (UO-31): 82.2 µM (inactive)
GI50 (HCT-116): 67.9 µM (inactive)
GI50 (UACC-257): > 100 µM (inactive)
GI50 (SN12C): 22.9 µM (inactive)

Cc1ccc(C(=O)C2=CN=C3C(=O)N(c4ccccc4)N(C)C3(C)C2=N)cc1 (centres undefined)
GI50 (HCT-15): > 100 µM
GI50 (LOX IMVI): > 100 µM (inactive)
GI50 (UACC-62): > 100 µM (inactive)
GI50 (A498): > 100 µM (inactive)
GI50 (MOLT-4): > 100 µM (inactive)
GI50 (CAKI-1): > 100 µM (inactive)
GI50 (NCI-H226): > 100 µM (inactive)
GI50 (A549): > 100 µM (inactive)
GI50 (OVCAR-3): > 100 µM (inactive)
GI50 (HCC 2998): > 100 µM (inactive)
GI50 (ACHN): > 100 µM (inactive)
GI50 (786-0): > 100 µM (inactive)
GI50 (NCI-H522): > 100 µM (inactive)
GI50 (UO-31): > 100 µM (inactive)
GI50 (HCT-116): > 100 µM (inactive)
GI50 (UACC-257): > 100 µM (inactive)
GI50 (SN12C): > 100 µM (inactive)

Cc1cccc(NC2=NC(=O)C(CC(=O)Nc3ccc(Cl)cc3C)S2)c1 (centres undefined)
GI50 (HT-29): > 100 µM (inactive)
GI50 (HCT-15): > 100 µM
GI50 (LOX IMVI): > 100 µM (inactive)
GI50 (SK-MEL-28): > 100 µM (inactive)
GI50 (UACC-62): > 100 µM (inactive)
GI50 (A498): 53.8 µM (inactive)
GI50 (MOLT-4): > 100 µM (inactive)
GI50 (CAKI-1): > 100 µM (inactive)
GI50 (NCI-H226): > 100 µM (inactive)
GI50 (A549): > 100 µM (inactive)
GI50 (OVCAR-3): > 100 µM (inactive)
GI50 (HCC 2998): > 100 µM (inactive)
GI50 (ACHN): > 100 µM (inactive)
GI50 (SF-268): > 100 µM (inactive)
GI50 (786-0): > 100 µM (inactive)
GI50 (NCI-H522): > 100 µM (inactive)
GI50 (UO-31): > 100 µM (inactive)
GI50 (UACC-257): > 100 µM (inactive)
GI50 (SN12C): > 100 µM (inactive)

Nc1c(-c2ccc(Cl)cc2)[n+]([O-])c2ccccc2[n+]1[O-]
GI50 (HT-29): > 100 µM (inactive)
GI50 (HCT-15): 76.4 µM
GI50 (LOX IMVI): > 100 µM (inactive)
GI50 (SK-MEL-28): 76.9 µM (inactive)
GI50 (UACC-62): > 100 µM (inactive)
GI50 (A498): 95.3 µM (inactive)
GI50 (MOLT-4): 27.3 µM (inactive)
GI50 (CAKI-1): > 100 µM (inactive)
GI50 (NCI-H226): 14.5 µM (inactive)
GI50 (A549): > 100 µM (inactive)
GI50 (OVCAR-3): 67.3 µM (inactive)
GI50 (HCC 2998): 49.9 µM (inactive)
GI50 (ACHN): 57.1 µM (inactive)
GI50 (SF-268): 59.8 µM (inactive)
GI50 (786-0): > 100 µM (inactive)
GI50 (NCI-H522): 25.3 µM (inactive)
GI50 (UO-31): 5.86 µM (inactive)
GI50 (UACC-257): 58.5 µM (inactive)
GI50 (SN12C): 95.1 µM (inactive)

N#Cc1c(Cl)nc2ccccc2c1N=[N+]=[N-]
GI50 (HT-29): 1.92 µM (inactive)
GI50 (HCT-15): 2.02 µM
GI50 (LOX IMVI): 1.67 µM (inactive)
GI50 (SK-MEL-28): 2.95 µM (inactive)
GI50 (UACC-62): 2.63 µM (inactive)
GI50 (A498): 21.7 µM (inactive)
GI50 (MOLT-4): 1.08 µM (active)
GI50 (CAKI-1): 1.68 µM (inactive)
GI50 (NCI-H226): 12.5 µM (inactive)
GI50 (A549): 16.6 µM (inactive)
GI50 (OVCAR-3): 1.78 µM (inactive)
GI50 (HCC 2998): 6.12 µM (inactive)
GI50 (ACHN): 2.11 µM (inactive)
GI50 (SF-268): 3.24 µM (inactive)
GI50 (786-0): 2.8 µM (inactive)
GI50 (NCI-H522): 1.99 µM (inactive)
GI50 (UO-31): 4.71 µM (inactive)
GI50 (HCT-116): 1.66 µM (inactive)
GI50 (UACC-257): 12.7 µM (inactive)
GI50 (SN12C): 5.14 µM (inactive)

Cc1ccc(S(=O)(=O)NNC(=O)Nc2ccc([N+](=O)[O-])cc2)cc1
GI50 (HT-29): 43.5 µM (inactive)
GI50 (HCT-15): 24.5 µM
GI50 (LOX IMVI): 52.4 µM (inactive)
GI50 (SK-MEL-28): > 100 µM (inactive)
GI50 (UACC-62): 22.8 µM (inactive)
GI50 (A498): 37.8 µM (inactive)
GI50 (MOLT-4): 46.3 µM (inactive)
GI50 (CAKI-1): 65.8 µM (inactive)
GI50 (NCI-H226): > 100 µM (inactive)
GI50 (A549): 35.6 µM (inactive)
GI50 (OVCAR-3): 19.6 µM (inactive)
GI50 (HCC 2998): 64.9 µM (inactive)
GI50 (ACHN): > 100 µM (inactive)
GI50 (SF-268): 67.6 µM (inactive)
GI50 (786-0): 24.9 µM (inactive)
GI50 (NCI-H522): 26.5 µM (inactive)
GI50 (UO-31): 47 µM (inactive)
GI50 (HCT-116): 26.9 µM (inactive)
GI50 (UACC-257): 46.5 µM (inactive)
GI50 (SN12C): 97.1 µM (inactive)

COC(=O)[C@H](Cc1c[nH]c2ccccc12)NC(=O)c1ccc(CNC(=O)/C(C)=C/c2ccccc2)cc1
GI50 (HT-29): > 100 µM (inactive)
GI50 (HCT-15): 48.1 µM
GI50 (LOX IMVI): 44.3 µM (inactive)
GI50 (SK-MEL-28): 18.2 µM (inactive)
GI50 (UACC-62): 20.9 µM (inactive)
GI50 (A498): 22.6 µM (inactive)
GI50 (MOLT-4): 21.5 µM (inactive)
GI50 (CAKI-1): > 100 µM (inactive)
GI50 (NCI-H226): > 100 µM (inactive)
GI50 (A549): 75.7 µM (inactive)
GI50 (OVCAR-3): 28.6 µM (inactive)
GI50 (HCC 2998): 15.6 µM (inactive)
GI50 (ACHN): 52.5 µM (inactive)
GI50 (SF-268): 97.5 µM (inactive)
GI50 (786-0): > 100 µM (inactive)
GI50 (NCI-H522): 14.6 µM (inactive)
GI50 (UO-31): 63.7 µM (inactive)
GI50 (HCT-116): 71.4 µM (inactive)
GI50 (UACC-257): 18 µM (inactive)
GI50 (SN12C): > 100 µM (inactive)

— ChEMBL document CHEMBL1201862, “PubChem BioAssay data set” (2004)
